Here are results for four compounds from US7943296B2, “Methods of screening using a natriuretic peptide receptor” (Oregon Health & Science University, priority 2005, dated 2011).

Numbering of substitutions follows the chain as printed.

Experiment [1] concerns cardiac fibroblasts (CFs). The experiment in a line: bFGF-induced α-SMA protein expression in CFs (Western blot). In kind it is cell-based, rat. The note with it: cells with insertless vector; 10 ng/ml FGF 48 hours; 100 nM ANP. As to the method: (§1) NP's ability to inhibit growth factor-induced CF differentiation into myofibroblasts was determined as follows. CFs were transiently transfected with insertless pcDNA3 vector or pcDNA3 encoding sNRF^(806-900) (see Example 7). The transfected CFs were then treated for 48 hours with 10 ng/ml basic fibroblast growth factor (FGF; Sigma-Aldrich #F0291) in the presence or absence of 100 nM ANP. Alpha-smooth muscle actin (α-SMA) protein expression, the principal marker of CF differentiation, was assessed by Western blotting and immunofluorescence microscopy. Vimentin staining was used as a loading control because it is expressed equally in fibroblasts and transdifferentiated myofibroblasts.
In general terms: Immunoblotting shows a protein as a band on a membrane.

The subject of experiment [2] is α-SMA promoter. Briefly: TGF-β1-induced α-SMA-luciferase reporter in CFs transfected with pcDNA3-sNRF or control vector. In kind it is cell-based. The following applies: for inhibitory effect on sNRF action (loss of NP inhibition of α-SMA-luciferase): sNRF-transfected CFs, TGF-β1 + ANP, 24 hours. As to the method: TGF-β1 signaling is required for angiotensin effects in the heart, and NPs oppose TGF-β1 effects in CFs. […] CFs were transiently transfected with the α-SMA-luciferase vector and pcDNA3 control vector or pcDNA3-sNRF, then treated for 24 hours with TGF-β1, ANP, and the angiotensin-converting enzyme inhibitor captopril (CAP) or the angiotensin receptor-1 blocker losartan (LOS).
(In general: In a reporter assay the amount or activity of a reporter protein is the signal.)

For experiment [3], the system named is cardiac fibroblasts (CFs). Briefly: Vimentin localisation in CFs by immunofluorescence microscopy. It counts as cell-based, rat. The note with it: in the presence of ANP. As to the method:
as §1
For the immunofluorescence microscopy, slide wells were treated as described in Example 7 and incubated with anti-α-SMA and anti-vimentin antibody as well as phalloidin to stain for actin. Briefly, cells were rinsed twice with phosphate-buffered saline (PBS) and fixed with 3.7% formaldehyde in PBS for 10 minutes. After fixation, cells were rinsed with PBS and permeabilized with 0.3% Triton X-100 in PBS for 10 minutes and blocked for 1 hour in 1% horse serum, 0.2% bovine serum albumin in PBS. Cells were then incubated with primary α-SMA antibody (ABCAM ab7817) and primary vimentin antibody (ABCAM ab7783) diluted in blocking solution for 1 hour and washed three times with blocking solution for 5 minutes. […]

The subject of experiment [4] is α-SMA promoter. Briefly: α-SMA-luciferase reporter in neonatal rat CFs with daily TGF-β1, model of NP resistance. In kind it is cell-based. The protocol:
Neonatal rat CFs were transfected with an α-SMA-luciferase reporter construct driven by TGF-β1 induction of the α-SMA promoter. After 24 hours, cells were treated daily with […] TGF-β1 for up to 4 days. On each successive day, some of the cells were treated with NP (ANP, 100 nM), and luciferase activity measured.

For experiment [5], the target named is T1, PKG (Rattus norvegicus, UniProt A9LNM8).
T1 construct: endogenous in cells; host or cells: primary neonatal rat cardiac fibroblasts transfected with 5'-FLAG sNRF fragments
T1 sequence (A9LNM8 1-671): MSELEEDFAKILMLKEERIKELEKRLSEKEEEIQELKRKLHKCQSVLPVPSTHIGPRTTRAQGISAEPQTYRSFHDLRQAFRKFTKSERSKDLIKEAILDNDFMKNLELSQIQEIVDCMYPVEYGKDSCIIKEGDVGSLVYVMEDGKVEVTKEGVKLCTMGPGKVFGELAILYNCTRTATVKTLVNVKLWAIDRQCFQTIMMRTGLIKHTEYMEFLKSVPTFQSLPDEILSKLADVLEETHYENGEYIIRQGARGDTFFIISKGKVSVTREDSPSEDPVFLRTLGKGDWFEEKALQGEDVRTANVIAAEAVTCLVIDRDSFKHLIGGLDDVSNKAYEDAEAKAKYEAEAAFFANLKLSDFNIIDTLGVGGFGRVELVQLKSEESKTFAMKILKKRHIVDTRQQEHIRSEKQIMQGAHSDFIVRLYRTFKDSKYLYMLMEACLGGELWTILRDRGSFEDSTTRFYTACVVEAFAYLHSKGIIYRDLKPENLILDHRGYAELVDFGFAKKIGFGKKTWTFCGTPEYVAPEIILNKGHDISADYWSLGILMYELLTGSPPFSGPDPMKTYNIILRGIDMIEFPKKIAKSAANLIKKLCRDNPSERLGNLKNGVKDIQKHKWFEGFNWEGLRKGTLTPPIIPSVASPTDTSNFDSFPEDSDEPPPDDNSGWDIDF
Briefly: Co-immunoprecipitation of PKG with FLAG-tagged NPRA fragments in primary CFs. It counts as binding. The following applies: 5'-FLAG-tagged fragment in transfected CFs, anti-FLAG M2 affinity gel. As to the method:
Neonatal rat ventricular fibroblasts (CFs) were cultured from 1 to 2-day-old Harlan Sprague-Dawley rats as described previously (Simpson, Circulation Res. 56:884-94, 1985). Briefly, ventricles were dissected free from atria and quartered. Following dissociation in ADS buffer containing 1.5 mg/ml trypsin (Gibco #27250-018) and 1% DNase solution (2 mg/ml DNase type II, 150 mM NaCl) with serum neutralization the collected cells were pre-incubated in media at 37° C. for 90 minutes to allow CF attachment to the bottom of culture dishes. CFs were incubated in plating media for 48 hours, divided into 6-well culture plates or dual-well chamberslides, and grown to 50% confluency in DMEM with 10% FBS prior to use.
CFs were transiently transfected with nucleic acid molecules encoding sNRF^(806-1061), sNRF^(806-900), or sNRF^(806-860) using routine methods. Briefly, PCR-generated, 5′-FLAG epitope-tagged sNRFs were subcloned into the BamHI and EcoRI sites of pCDNA3 (Invitrogen) and sequenced to verify construction accuracy. […]
The ability of the NPRA fragments to immunoprecipitate PKG was determined in the primary CF cells transfected with the 5′-FLAG epitope-tagged NPRA fragments as follows. […] Bound antibody was detected with chemiluminescent substrate (Western Lightning ECL, PerkinElmer Life Sciences).

Experiment [6] has as its target T2, PKG (Homo sapiens, UniProt Q13976).
T2 construct: endogenous in cells; host or cells: HEK293 stably over-expressing FLAG-NPRA (HEK-NPRA)
T2 sequence (Q13976 1-671): T1 sequence (A9LNM8 1-671) with D227E, K265T, S267N, E291G, E499K, S586N, S656N
The experiment in a line: Immunofluorescence of NP-induced PKG membrane translocation in HEK-NPRA cells. It counts as cell-based. The note with it: fragment expressed in HEK-NPRA cells; ANP 100 nM 15 minutes. As to the method:
HEK-NPRA cells were transiently transfected with insertless pcDNA3 plasmid vector or pcDNA3-sNRF^(806-1061). All slide wells were treated with atrial natriuretic peptide (ANP) (100 nM; Sigma-Aldrich #A1663) for 15 minutes. Cells were decorated with monoclonal flag antibody specific for FLAG-NPRA (red) and polyclonal PKG antibody (green). Overlapping regions of PKG and NPRA appeared yellow-orange. PKG staining was absent when anti-PKG antibody was pre-adsorbed with recombinant PKG protein (Calbiochem).

On to `CC[C@H](C)[C@@H]1NC(=O)[C@H](CCCNC(=N)N)NC(=O)[C@H](CC(=O)O)NC(=O)[C@H](CCSC)NC(=O)[C@H](CCCNC(=N)N)NC(=O)CNC(=O)CNC(=O)[C@H](Cc2ccccc2)NC(=O)[C@@H](NC(=O)[C@H](CO)NC(=O)[C@H](CO)NC(=O)[C@H](CCCNC(=N)N)NC(=O)[C@H](CCCNC(=N)N)NC(=O)[C@H](CC(C)C)NC(=O)[C@@H](N)CO)CSSC[C@@H](C(=O)N[C@@H](CC(N)=O)C(=O)N[C@@H](CO)C(=O)N[C@@H](Cc2ccccc2)C(=O)N[C@@H](CCCNC(=N)N)C(=O)N[C@@H](Cc2ccc(O)cc2)C(=O)O)NC(=O)CNC(=O)[C@H](CC(C)C)NC(=O)CNC(=O)[C@H](CO)NC(=O)[C@H](CCC(N)=O)NC(=O)[C@H](C)NC(=O)CNC1=O` [ANP, atrial natriuretic peptide], for which the “bFGF-induced α-SMA protein expression” value in experiment [1] is listed as “inhibited bFGF-induced α-SMA protein expression”. Moreover, in the experiment with α-SMA promoter [2] (cells that do not over-express sNRF), the “TGF-β1-induced α-SMA-luciferase expression” value was “inhibits TGF-β1-induced α-SMA-luciferase expression”. Further, the “nuclear to cytosolic translocation of vimentin” value in experiment [3] is on record as “nuclear to cytosolic translocation of vimentin was observed”. The “expression of the luciferase reporter construct driven by TGF-β1 induction of the α-SMA promoter” value in the experiment with α-SMA promoter [4] (NP (ANP, 100 nM) 24 hours, 100 nM TGF-β1) is on record as “almost completely inhibited”. The “NP's inhibitory effect on TGF-β1-induced α-SMA-luciferase” value with α-SMA promoter [4] (progressively longer periods of NP treatment, up to 4 days) is “steady decline in NP's inhibitory effects”.

Consider `C[C@H](CS)C(=O)N1CCC[C@H]1C(=O)O` [captopril], for which, in the experiment with α-SMA promoter [2], the “inhibitory effect on sNRF action (loss of NP inhibition of α-SMA-luciferase)” value was “no significant inhibitory effect”.

For the compound `CCCCc1nc(Cl)c(CO)n1Cc1ccc(-c2ccccc2-c2nn[nH]n2)cc1` [losartan], the “NP-inhibition of TGF-β1 induction of α-SMA-luciferase” value in the experiment on α-SMA promoter [2] (non-sNRF transfected cells) was “blocks NP-inhibition of TGF-β1 induction of α-SMA-luciferase”. In addition, the “inhibitory effect on sNRF action (loss of NP inhibition of α-SMA-luciferase)” value in the experiment with α-SMA promoter [2] is recorded as “no significant inhibitory effect”.

Turning to “sNRF^(806-1061): intracellular NPRA fragment, residues 806-1061, with hinge domain and C-terminal guanylyl cyclase domain; expressed FLAG-tagged”, the “co-immunoprecipitation of PKG” value with PKG [5] is on record as “co-immunoprecipitated PKG”. In the experiment with PKG [6], the “translocation of cytosolic PKG to the plasma membrane” value is “inhibited translocation of cytosolic PKG to the plasma membrane”.
